Measured values from patent US9078429B2, “Method of cryopreserving stem cells” (The Governors of the University of Alberta, priority 2004, dated 2015).

Test system: TF-1 cells
Test: Post-thaw recovery of TF-1 cells by membrane integrity assay (SYTO 13/ethidium bromide) after cryopreservation
Format: cell-based, human
Conditions: TF-1 cells in 10% DMSO/RPMI, conventional cooling at a constant rate of 0.9° C./min, then liquid nitrogen, thawed
Experimental: FIG. 12. Membrane integrity of TF-1 cells in 10% DMSO cooled at 1° C./min to various subzero temperatures and then either thawed directly (upper curve) or cooled rapidly at 325° C./min in liquid nitrogen (lower curve) before being thawed.
TF-1 cells (ATCC, Manassas, Va.) were grown at 37° C. in 5% CO2 in RPMI 1640 Medium Modified (ATCC) with 10% fetal bovine serum (FBS) (ATCC), and supplemented with 2 ng/mL recombinant human GM-CSF (Stemcell Technologies, Vancouver, Canada). Cells were maintained between 0.1×10^6 and 1×10^6 cells/mL, according to ATCC guidelines. Prior to experiments, cells were washed twice with serum-free RPMI media and incubated overnight. […]
Cell viability was assessed by a membrane integrity assay. […]
The Syto/EB stain was prepared using 40 μL of 2.5 mM EB stock solution and 10 μL of 5 mM Syto® 13 stock solution mixed with 350 μL 1× phosphate-buffered saline (PBS). […] Fluorescent images were captured using a Leitz Dialux 22 fluorescence (440-480 nm) microscope (Leitz, Germany) fitted with a PIXERA DiRactor (Pixera Corporation, Los Gatos, Calif., USA) digital camera. The Viability Assessment Program (The Great Canadian Computer Company, Spruce Grove, Canada), which counts red versus green pixels was used to quantify cell membrane integrity from digital images (Jomha, 2003). […]

C[S+](C)[O-] [DMSO, dimethyl sulfoxide]
recovery (membrane integrity) after thawing: 63.7%
